Data as given in patent US11219623B2, “Inflammasome inhibition for the treatment of Parkinson's disease, Alzheimer's disease and multiple sclerosis” (University of Kentucky Research Foundation, priority 2015, dated 2022).
Values after ≈ are worked out from the molar mass of the structure shown. “Also recorded” adds a separate entry of the source.

How the values were obtained:
[1] = LogP, partition coefficient in 1-octanol; assay type: physicochemical; conditions: 1-octanol partition
[2] = tested on: Caspase-1; test: iGLuc luminescence assay of ATP-induced Caspase-1 activation in J774 iGLuc cells; assay type: cell-based, mouse; conditions: for Caspase-1 cleavage (luminescence): ATP 5 mM, drug 1 nM-100 μM, N=3; for reduction of inflammasome activation: ATP (5 mM), mouse J774 iGLuc cells, FIGS. 70-73
Protocol: Caspase-1 is the enzyme at the core of the inflammasome complex and is an important danger response signal and mediator of RPE cell death in AMD. […] Importantly, there was some difference between individual compounds in terms of the dose response curve, emphasizing the need to test each compound (with unique R group(s)) individually.
To obtain the data set forth in FIGS. 64-73, an iGLuc assay was conducted (modified from Bartok et al. iGLuc: a luciferase-based inflammasome and protease activity reporter. Nature Methods 2013; 10(2):147-54). Briefly, 100,000 iGLuc cells per well were plated in a 96 well plate overnight. The next morning, media is aspirated from the plate and replaced with 75 μL of serum free DMEM with drugs (NRTIs or modified NRTIs) for 30 min. After 30 minutes of drug exposure, 20 mM ATP (25 μL) is added for a final concentration of 5 mM. 50 μL of media from each well is collected and 50 μL of coelenterazine 4.4 μM is added to each sample, and luminescence is read immediately.

[3] = tested on: human LINE-1 retrotransposon; test: EGFP cell culture L1 retrotransposition assay in HeLa cells; assay type: cell-based; conditions: 7 days after transfection, flow cytometry
Protocol: These findings pave way for the rational re-design and improvement of nucleoside analogs as novel therapeutics. The enhanced green fluorescent protein (EGFP) cell culture L1 retrotransposition assay was performed in HeLa cells. […] Transfected cells were selected in puromycin. 7 days after transfection, cells that underwent retrotransposition (EGFP-positive) were assayed by flow cytometry. Cells were gated based on background fluorescence of plasmid JM111, which has two point mutations in L1-ORF1 that abolish retrotransposition. Data are normalized with RPS set to 1.

[4] = tested on: wild-type mice; test: pAlu-induced RPE degeneration, mouse model of dry AMD; assay type: in vivo; conditions: intraperitoneal 25 mg/kg twice daily
Protocol: Mouse studies were conducted to study treatment with NRTIs or derivatives.

[5] = tested on: wild-type mice; test: Laser-induced choroidal neovascularization (CNV; wet AMD) in wild-type mice; conditions: intravitreous 0.14 nmol; day 7; N=16
[6] = Solubility in water; assay type: physicochemical; conditions: aqueous buffer; Water pH 7.2 at 37° C.
[7] = tested on: Caspase-1; test: Alu RNA-induced Caspase-1 activation, western blot, primary human RPE cells; assay type: cell-based
Excerpt: The bottom row in FIG. 5 is a vinculin loading control.

[8] = tested on: Caspase-1; test: Iron (III) ammonium citrate-induced Caspase-1 activation, western blot, primary human RPE cells; assay type: cell-based; conditions: Fe(III) ammonium citrate (100 μM)
Excerpt: Caspase-1 activation (p20 subunit) in primary human retinal pigment epithelium (RPE) cells in the presence of iron (III) ammonium citrate was studied.
Caspase-1 activation (p10 subunit) in primary human RPE cells in the presence of iron (III) ammonium citrate was studied.
Alu RNA is a toxic endogenous retroelement that accumulates in and causes death of the RPE in patients with dry AMD. […] FAC activates Caspase-1 via an Alu RNA intermediate, and induces NLRP3-dependent RPE degeneration (Gelfand et al. Cell Reports 2015). Fe(III) ammonium citrate (100 μM)-induced Caspase-1 activation in primary human RPE cells, monitored by western blotting, is reduced by TM-3TC (25 μM), d4T-ene (25 μM), 2Me-d4T (25 μM), Me-AZT (25-100 μM), and 2Me-AZT (25 μM). N=3-4.

[9] = tested on: GFP-expressing lentivirus; test: GFP-expressing lentivirus transduction/replication assay in HeLa cells; assay type: cell-based; conditions: 10 μM; 72 hours; MOI 20
Protocol: All drugs were added at a concentration of 10 μM. Cells were imaged for GFP expression 72 hours after addition of lentivirus. GFP-positive cells per field of view were recorded. n=4-11, error bars S.E.M. Reverse transcription of lentivirus is essential for GFP expression; modified NRTIs should not block reverse transcriptase, whereas NRTIs are known to block reverse transcriptase.
The present disclosure further provides the results of additional experiments in FIG. 21-FIG. 23.

[10] = tested on: mtDNA; test: Relative quantity of mtDNA, quantitative PCR, primary human RPE cells; conditions: 50 μM; four days; relative to DMSO
[11] = target: T1, human P2X7 receptor (Homo sapiens, UniProt Q99572); conditions: 64 μM drug; bzATP 100 μM; n=12
T1 sequence (Q99572 1-595): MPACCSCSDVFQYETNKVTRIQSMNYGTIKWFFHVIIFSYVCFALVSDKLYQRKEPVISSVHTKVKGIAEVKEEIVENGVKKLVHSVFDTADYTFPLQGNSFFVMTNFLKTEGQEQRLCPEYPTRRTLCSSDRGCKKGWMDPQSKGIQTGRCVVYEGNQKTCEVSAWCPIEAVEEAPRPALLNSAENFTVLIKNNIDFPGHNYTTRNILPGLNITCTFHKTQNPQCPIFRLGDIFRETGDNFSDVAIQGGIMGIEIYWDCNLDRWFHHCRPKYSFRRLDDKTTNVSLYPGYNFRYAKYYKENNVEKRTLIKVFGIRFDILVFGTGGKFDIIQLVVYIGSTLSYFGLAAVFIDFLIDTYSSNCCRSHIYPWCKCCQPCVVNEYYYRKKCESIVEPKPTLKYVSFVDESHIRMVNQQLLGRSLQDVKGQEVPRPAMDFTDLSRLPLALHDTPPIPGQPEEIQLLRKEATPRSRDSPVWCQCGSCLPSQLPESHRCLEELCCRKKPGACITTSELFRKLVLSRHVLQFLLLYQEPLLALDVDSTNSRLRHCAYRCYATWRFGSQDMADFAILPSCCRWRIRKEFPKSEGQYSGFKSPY

[12] = tested on: wild-type mice; test: Alu RNA-induced RPE degeneration, mouse model of dry AMD; conditions: intraperitoneal 25 mg/kg, twice daily for 6 days
[13] = tested on: IL-18; test: LPS/ATP-induced IL-18 maturation, mouse bone marrow-derived macrophages; assay type: cell-based; conditions: 100 uM; cell culture supernatants
[14] = tested on: IL-1 beta; test: MSU-induced IL-1 beta secretion from PMA-differentiated THP-1 monocytes, ELISA; assay type: cell-based, human; conditions: 25-1000 uM
Excerpt: Human THP-1 monocytes were differentiated into macrophages with PMA.
To illustrate this, human THP-1 monocytes were differentiated into macrophages with PMA. Treatment with MSU increased IL-1 beta secretion compared to non-treated cells. […]

[15] = tested on: Caspase-1; test: LPS/ATP-induced Caspase-1 activation, mouse bone marrow-derived macrophages, western blot; conditions: 100 uM; cell culture supernatants

Row | Compound | logP [1] | Caspase-1 cleavage (luminescence) [2] | L1 retrotransposition (EGFP-positive cells) [3] | pAlu-induced RPE degeneration [4] | solubility [6] | other results
1 | CCOC[C@H]1O[C@@H](n2ccc(N(CC)CC)nc2=O)CS1 (stereo in doubt) [Kamuvudine 3Et-3TC, 4-(diethylamino)-1-[2-(ethoxymethyl)-1,3-oxathiolan-5-yl]-1,2-dihydropyrimidin-2-one] | 1.16 | reduces Caspase-1 cleavage in a dose-dependent fashion | some residual interference with natural L1 activity | protects against RPE degeneration | 1600 µg/mL (≈ 5.1 mM) | choroidal neovascularization (CNV) volume [5]: reduced choroidal neovascularization (CNV) volume
2 | CCOC[C@H]1O[C@@H](n2cc(C)c(=O)n(CC)c2=O)C[C@@H]1N=[N+]=[N-] [Kamuvudine 2Et-AZT, 1-[(2R,4S,5 S)-4-azido-5-(ethoxymethyl)oxolan-2-yl]-3-ethyl-5-methyl-1,2,3,4-tetrahydropyrimidine-2,4-dione] | 1.17 | reduces Caspase-1 cleavage in a dose-dependent fashion | no effect on L1 activity | protects against RPE degeneration | 10 µg/mL (≈ 0.0309 mM) | choroidal neovascularization (CNV) volume [5]: reduced choroidal neovascularization (CNV) volume
3 | CCOC[C@@H]1C=C[C@H](n2cc(C)c(=O)n(CC)c2=O)O1 [Kamuvudine 2Et-d4T, 1-[(2R,5 S)-5-(ethoxymethyl)-2,5-dihydrofuran-2-yl]-3-ethyl-5-methyl-1,2,3,4-tetrahydropyrimidine-2,4-dione] | 1.35 | reduces Caspase-1 cleavage in a dose-dependent fashion | no effect on L1 activity | protects against RPE degeneration | 90 µg/mL (≈ 0.321 mM) | Alu RNA induced Caspase-1 activation ([7]; 25 μM, N=3-4): reduced; reduction of inflammasome activation [2]: about 45%
4 | COC[C@H]1O[C@@H](n2cc(C)c(=O)n(C)c2=O)C[C@@H]1N=[N+]=[N-] [Kamuvudine 2Me-AZT, 1-[(2R,4S,5S)-4-azido-5-(methoxymethyl)oxolan-2-yl]-3,5-dimethyl-1,2,3,4-tetrahydropyrimidine-2,4-dione] | 0.45 | reduces Caspase-1 cleavage in a dose-dependent fashion | no effect on L1 activity | restored to healthy RPE morphology/intercellular junctions | 940 µg/mL (≈ 3.18 mM) | iron-induced Caspase-1 activation ([8]; 25 μM): reduced; Alu RNA induced Caspase-1 activation ([7]; 25 μM, N=3-4): reduced; lentivirus replication (GFP-positive cells per field) [9]: do not block lentivirus replication; relative quantity of mtDNA (mtDNA depletion) [10]: do not exhibit mtDNA depletion
5 | Clc1cccc(-c2nnnn2Cc2cccnc2)c1Cl [Kamuvudine A438079] | – | – | – | – | – | P2X7-mediated YO-PRO-1 dye uptake induced by bzATP [11]: inhibited
6 | COCC1O[C@@H](n2cc(C)c(=O)[nH]c2=O)CC1N=[N+]=N (stereo partly drawn) [Me-AZT, 1-[(5R)-2-(methoxymethyl)-5-(5-methyl-2,4-dioxo-1,2,3,4-tetrahydropyrimidin-1-yl)oxolan-3-yl]triaza-1,2-dien-2-ium] | – | – | no effect on L1 activity | restored to healthy RPE morphology/intercellular junctions | – | iron-induced Caspase-1 activation ([8]; 25-100 μM): reduced; lentivirus replication (GFP-positive cells per field) [9]: do not block lentivirus replication; relative quantity of mtDNA (mtDNA depletion) [10]: do not exhibit mtDNA depletion
7 | CCn1c(=O)c(C)cn([C@H]2C=C[C@@H](COC)O2)c1=O [O-Me N-Et d4T, 3-ethyl-1-[(2R,5S)-5-(methoxymethyl)-2,5-dihydrofuran-2-yl]-5-methyl-1,2,3,4-tetrahydropyrimidine-2,4-dione] | 0.99 | reduces Caspase-1 cleavage in a dose-dependent fashion | – | – | 1500 µg/mL (≈ 5.63 mM) | Alu RNA-induced RPE degeneration [12]: protects against Alu RNA-induced RPE degeneration; Alu RNA induced Caspase-1 activation ([7]; 25 μM, N=3-4): reduced; reduction of inflammasome activation [2]: about 55%; choroidal neovascularization (CNV) volume [5]: reduced choroidal neovascularization (CNV) volume
8 | Clc1ccc(C(c2ccc(Cl)cc2)n2cc[n+](CC(OCc3ccc(Cl)cc3Cl)c3ccc(Cl)cc3Cl)c2)cc1 (centres unmarked) [calmidazolium, reference compound] | – | – | – | – | – | Alu RNA-induced Caspase-1 activation/cleavage ([7]; concentration not given): not inhibited
9 | Nc1ncnc2c1ncn2[C@@H]1O[C@H](CO)C[C@H]1O [cordycepin] | – | – | – | – | – | IL-18 maturation induced by LPS/ATP [13]: inhibit; Alu RNA-induced Caspase-1 maturation ([7]; 50-100 uM, 24 hours after Alu administration): blocked; IL-1beta secretion induced by MSU [14]: did not significantly affect IL-1beta secretion; Caspase-1 activation (active p20 band) induced by LPS/ATP [15]: inhibit Caspase-1 activation
10 | C=C1C=C[C@H](n2cc(C)c(=O)[nH]c2=O)O1 [d4T-ene] | – | – | – | – | – | iron-induced Caspase-1 activation ([8]; 25 μM): blocked iron-induced Caspase-1 activation; also recorded: reduced; Alu RNA induced Caspase-1 activation ([7]; 25-100 μM (25 and 100 μM)): blocked Alu-induced Caspase-1 activation; also recorded: reduced
11 | Nc1ccn([C@@H]2CS[C@H](CO)O2)c(=O)n1 [reference compound] | -1.1 | – | – | – | 64000 µg/mL (≈ 279 mM) | –
